# Measured values reported in patent US20120232290A1, “REACTIVITY OF HYDROXYMETHYLGLUTARYL COENZYME A (HMG-COA) REDUCTASE INHIBITORS CONTAINING CONJUGATED DIENES WITH PHENOLIC ANTIOXIDANTS IN THE SOLID-STATE” (priority 2007, published 2012).
# Where two headings read alike, the source gives them in different places.
# Legend:
# [1] = assay type: physicochemical; settings: for hydroxy and hydroperoxide products formed: reactions with antioxidants, determined by LC/MS; for change in concentration of statin / decrease in concentration of statin: solid-state, 50° C., 9 days
# Procedure: Solvents used varied due to the solubility of the statin. […] The beaker was placed in a dark oven maintained at 50° C. overnight. The beaker was removed from the oven, allowed to cool, then 20 mL of solvent were added and the beaker swirled to redissolve the solid. The beaker was returned to the oven and heated an additional 24 h at 50° C. This dissolution and heating process was repeated daily for the duration of the specific experiment. […] Reversed-phase HPLC analyses were performed using an Agilent 1100 HPLC with an Agilent diode array detector acquiring data in the range of 205-400 nm. This LC/MS-compatible method utilized a Discovery RP Amide C16 250 mm×4.6 mm, 5 μm column (Supelco Inc, Bellefonte Pa.). Mobile phase A was aqueous 0.1% (v/v) formic acid and mobile phase B was acetonitrile containing 0.1% (v/v) formic acid. Mobile phase flow rate was 1 mL/min and the column was maintained at 30° C. The elution sequence was isocratic 60% A:40% B for 0.5 min; a gradient of 60% A:40% B to 50% A:50% B over 1.5 min then hold for 28 min; 50% A:50% B to 20% A:80% B over 1.0 min then hold for 3 min; 20% A:80% B to 100% B over 1.0 min then hold for 4 min. LC/MS analyses were performed using a Waters Acquity UPLC with PDA and a Micro Quattro MS with infusion pump with the LC method described above.
# [2] = Stability of isolated simvastatin hydroperoxide degradates on storage; assay type: physicochemical; settings: stored under freezer conditions
# [3] = aqueous solution, radical initiator; cited from earlier work
SMILES,degradation of statin [1],change in concentration of statin ([1]; with BHA),change in concentration of statin ([1]; with α-tocopherol),hydroxy and hydroperoxide products formed [1],decomposition of isolate on storage [2],also measured
CCC(C)(C)C(=O)OC1C[C@](C)(OO)C=C2C=CC(C)C(CCC3CC(O)CC(=O)O3)C21 (stereo partly drawn) [3(S)-hydroperoxysimvastatin],–,–,–,–,slowly decomposed to numerous products over a few days,–
CCC(C)(C)C(=O)OC1C[C@@](C)(OO)C=C2C=CC(C)C(CCC3CC(O)CC(=O)O3)C21 (stereo partly drawn) [3(R)-hydroperoxysimvastatin],–,–,–,–,slowly decomposed to numerous products over a few days,–
CC[C@H](C)C(=O)O[C@H]1C[C@@H](C)C=C2C=C[C@H](C)[C@H](CC[C@@H]3C[C@@H](O)CC(=O)O3)[C@H]21 [lovastatin],Minimal degradation,remained essentially unchanged,remained essentially unchanged,minimal quantities of hydroxy and hydroperoxide products,–,rates of oxidation (lovastatin versus simvastatin) [3]: nearly identical rates of oxidation; decrease in concentration of statin ([1]; incubated alone): about 12%; decrease in concentration of statin ([1]; with propyl gallate): about 12%

# More lines, main results first:
degradation of statin [1],change in concentration of statin ([1]; with BHA),change in concentration of statin ([1]; with α-tocopherol),SMILES,hydroxy and hydroperoxide products formed [1],decomposition of isolate on storage [2],also measured
Minimal degradation,no decrease,no decrease,CC[C@H](C)C(=O)O[C@H]1CCC=C2C=C[C@H](C)[C@H](CC[C@@H]3C[C@@H](O)CC(=O)O3)[C@H]21 [mevastatin],minimal quantities of hydroxy and hydroperoxide products,–,change in concentration of statin ([1]; incubated alone): no decrease; change in concentration of statin ([1]; with propyl gallate): no decrease
Minimal degradation,–,–,CC[C@H](C)C(=O)O[C@H]1C[C@H](O)C=C2C=C[C@H](C)[C@H](CC[C@@H](O)C[C@@H](O)CC(=O)O)[C@H]21 [pravastatin],–,–,–
